{"source": "patent US5246830A", "about": "“Enzymatic process for the determination of β-lactam antibiotics” (Ucb Bioproducts, S.A., priority 1990, dated 1993)", "target": "T1, enzyme R39 (soluble D-alanyl-D-alanine carboxypeptidase produced by Actinomadura R39) (Actinomadura sp. R39, UniProt P39045)", "T1 construct": "added to milk or serum samples", "T1 sequence (P39045 50-515)": "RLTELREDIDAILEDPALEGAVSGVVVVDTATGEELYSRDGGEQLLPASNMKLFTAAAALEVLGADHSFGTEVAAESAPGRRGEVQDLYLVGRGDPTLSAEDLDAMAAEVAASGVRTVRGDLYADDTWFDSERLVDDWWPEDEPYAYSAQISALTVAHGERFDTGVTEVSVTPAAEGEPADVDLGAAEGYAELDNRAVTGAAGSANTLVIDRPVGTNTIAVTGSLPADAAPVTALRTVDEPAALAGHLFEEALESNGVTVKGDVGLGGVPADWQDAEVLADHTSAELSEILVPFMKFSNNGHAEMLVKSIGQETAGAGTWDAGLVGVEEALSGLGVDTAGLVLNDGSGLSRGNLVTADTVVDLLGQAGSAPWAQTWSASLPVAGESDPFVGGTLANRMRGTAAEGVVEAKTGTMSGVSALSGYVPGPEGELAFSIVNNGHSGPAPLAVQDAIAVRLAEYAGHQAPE", "experiment": "Enzymatic determination of penicillin G in milk with [(N-phenylacetyl-D-alanyl)thio]-acetic acid as substrate (Example 4)", "assay_type": "biochemical", "conditions": "substrate [(N-phenylacetyl-D-alanyl)thio]-acetic acid", "method": "The process is the same as in example 3, except that, after the first incubation, 120 μl of an aqueous solution containing 5 mg/ml of [(N-phenylacetyl-D-alanyl)thio]-acetic acid are added."}
{"smiles": "CC1(C)S[C@@H]2[C@H](NC(=O)Cc3ccccc3)C(=O)N2[C@H]1C(=O)O", "note": "[penicillin G, benzyl penicillin (penicillin G)]", "values": [{"measurement": "Coloration", "setting": "penicillin G 0.003 I.U./ml in 3 ml milk", "value": "pale yellow"}, {"measurement": "Coloration", "setting": "penicillin G 0.006 I.U./ml in 3 ml milk", "value": "white"}]}
